Reference: patent US9493483B2, “Benzo [C] isoxazoloazepine bromodomain inhibitors and uses thereof” (Constellation Pharmaceuticals, Inc., priority 2012, dated 2016)
Read-outs that look alike come from different tables or passages of the source.

Legend:
[1] = test system: MYC mRNA in MV4:11 (AML) or Raji (Burkitt's lymphoma) cells; assay: cMyc RNA quantification assay (QuantiGene); type: cell-based; conditions: MV4:11 or Raji cells, 4 h; read-out: MYC Cellular EC50
Procedure: cMyc RNA Quantification Assay (QuantiGene® Assay):
MV4:11 (AML) or Raji (Burkitt's lymphoma) cells were seeded in a 96-well plate and incubated in the presence of various concentrations of compounds for 4 h. Relative mRNA levels were quantitated by using QuantiGene 2.0 assay (Affymetrix) according to the manufacturer's recommendation. Signals were detected by using an Envision plate reader (Perkin-Elmer). Biological duplicates were averaged and normalized to vehicle (DMSO) control to calculate percent MYC mRNA levels.

[2] = test system: IL-6 secretion in LPS-stimulated THP-1 cells; assay: Cell-based IL-6 quantification assay (ELISA, Mesoscale); conditions: LPS 4 μg/mL, 16 h, read-out: IL-6 Cellular EC50
Procedure: Cell-Based IL-6 Quantification Assay (ELISA, Mesoscale Assay):
100,000 THP-1 cells were seeded in RPMI1640-10% FBS in 96-well plates. LPS (E. Coli Invitrogen) in RPMI-10% FBS at a final concentration of 4 μg/mL was added to the wells and the cells are then incubated in the presence of various concentrations of compounds for 16 h. Plates are spun ([…], 5 min), an aliquot of 25 uL supernatant is transferred in to an ELISA plate (Mesoscale technology, MSD) and the detection of IL-6 is performed using manufacturer's instructions. The amount of cells in each well is assessed using CellTiter-Glo® (Promega). The ratio of ELISA value/CellTiter-Glo value is used to calculate the percent of inhibition of IL-6 secretion.

BRD4(BD1) = BRD4(BD1) (Homo sapiens (Human), UniProt O60885); assay: BRD4 AlphaLisa binding assay; conditions: BRD4(BD1) 30 nM, H4-tetraacetyl peptide 200 nM; read-out: AlphaScreen IC50
Procedure: IC50 Measurements for Inhibitors Using BRD4 AlphaLisa Binding Assay
His/Flag epitope tagged BRD4 BD142-168 was cloned, expressed and purified to homogeneity. BRD4 binding and inhibition was assessed by monitoring the engagement of biotinylated H4-tetraacetyl peptide (Millipore #12-379) with the target using the AlphaLisa technology (Perkin-Elmer). Specifically, in a 384 well ProxiPlate BRD4(BD1) (30 nM final) was combined with peptide (200 nM final) in 40 mM HEPES (pH 7.0), 40 mM NaCl, 1 mM DTT, 0.01% (w/v) BSA, and 0.008% (w/v) Brij-35 either in the presence of DMSO (final 1.2% DMSO) or compound dilution series in DMSO. After 20 minute incubation at room temperature Alpha streptavidin donor beads and AlphaLisa anti-Flag acceptor beads were added to a final concentration of 10 ug/mL each. After three hours equilibration plates were read on an Envision instrument and IC50s calculated using a four parameter non-linear curve fit.

OCI-LY-19 = assay: In vitro cancer cell line growth inhibition (GI50); type: cell-based; conditions: Homo sapiens, OCI-LY19; OCI-LY-19, DLBCL, 72 hours, resazurin
Procedure: (§1) Method for GI50 Determination
(§2) Adherent cells were plated in 96-well plates and the following day compound titrations were added to the cells. Suspensions cells were plated directly in 96-well plates containing compound titrations. Compound titrations were comprised of 9 two-fold dilutions. Cells were incubated for 72 hours before analysis of viability with resazurin. Viability relative to DMSO treated cells was plotted to determine the absolute GI50 values.

HT29 = assay: In vitro cancer cell line growth inhibition (GI50); type: cell-based; conditions: Homo sapiens, HT-29; HT29, Colorectal, 72 hours, resazurin
Procedure: as §1, §2

WSU-DLCL-2 = assay: In vitro cancer cell line growth inhibition (GI50); type: cell-based; conditions: Homo sapiens, WSUDLCL2; WSU-DLCL-2, DLBCL, 72 hours, resazurin
Procedure: as §1, §2

OPM2 = assay: In vitro cancer cell line growth inhibition (GI50); type: cell-based; conditions: Homo sapiens, OPM-2; OPM2, Multiple myeloma, 72 hours, resazurin
Procedure: as §1, §2

DB = assay: In vitro cancer cell line growth inhibition (GI50); type: cell-based; conditions: Homo sapiens, DLBCL, 72 hours, resazurin
Procedure: as §1, §2

KMS11 = assay: In vitro cancer cell line growth inhibition (GI50); type: cell-based; conditions: Homo sapiens, KMS-11; KMS11, Multiple myeloma, 72 hours, resazurin
Procedure: as §1, §2

A2780 = assay: In vitro cancer cell line growth inhibition (GI50); type: cell-based; conditions: Homo sapiens; A2780, Ovarian, 72 hours, resazurin
Procedure: as §1, §2

SU-DHL-6 = assay: In vitro cancer cell line growth inhibition (GI50); type: cell-based; conditions: Homo sapiens; SU-DHL-6, DLBCL, 72 hours, resazurin
Procedure: as §1, §2

HT = assay: In vitro cancer cell line growth inhibition (GI50); type: cell-based; conditions: Homo sapiens, DLBCL, 72 hours, resazurin
Procedure: as §1, §2

MV4-11 = assay: In vitro cancer cell line growth inhibition (GI50); type: cell-based; conditions: Homo sapiens; MV4-11, AML, 72 hours, resazurin
Procedure: as §1, §2

A549 = assay: In vitro cancer cell line growth inhibition (GI50); type: cell-based; conditions: Homo sapiens; A549, Lung, 72 hours, resazurin
Procedure: as §1, §2

MOLM-13 = assay: In vitro cancer cell line growth inhibition (GI50); type: cell-based; conditions: Homo sapiens; MOLM-13, AML, 72 hours, resazurin
Procedure: as §1, §2

SU-DHL-10 = assay: In vitro cancer cell line growth inhibition (GI50); type: cell-based; conditions: Homo sapiens, SU-DHL10; SU-DHL-10, DLBCL, 72 hours, resazurin
Procedure: as §1, §2

LP1 = assay: In vitro cancer cell line growth inhibition (GI50); type: cell-based; conditions: Homo sapiens, LP-1; LP1, Multiple myeloma, 72 hours, resazurin
Procedure: as §1, §2

SU-DHL-8 = assay: In vitro cancer cell line growth inhibition (GI50); type: cell-based; conditions: Homo sapiens; SU-DHL-8, DLBCL, 72 hours, resazurin
Procedure: as §1, §2

H23 = assay: In vitro cancer cell line growth inhibition (GI50); type: cell-based; conditions: Homo sapiens, NCI-H23; H23, Lung, 72 hours, resazurin
Procedure: as §1, §2

U2932 = assay: In vitro cancer cell line growth inhibition (GI50); type: cell-based; conditions: Homo sapiens; U2932, DLBCL, 72 hours, resazurin
Procedure: as §1, §2

143B = assay: In vitro cancer cell line growth inhibition (GI50); type: cell-based; conditions: Homo sapiens, Osteosarcoma, 72 hours, resazurin
Procedure: as §1, §2

H526 = assay: In vitro cancer cell line growth inhibition (GI50); type: cell-based; conditions: Homo sapiens, NCI-H526; H526, Lung, 72 hours, resazurin
Procedure: as §1, §2

SU-DHL-5 = assay: In vitro cancer cell line growth inhibition (GI50); type: cell-based; conditions: Homo sapiens; SU-DHL-5, DLBCL, 72 hours, resazurin
Procedure: as §1, §2

KARPAS 422 = assay: In vitro cancer cell line growth inhibition (GI50); type: cell-based; conditions: Homo sapiens; KARPAS 422, DLBCL, 72 hours, resazurin
Procedure: as §1, §2

ML-2 = assay: In vitro cancer cell line growth inhibition (GI50); type: cell-based; conditions: Homo sapiens; ML-2, AML, 72 hours, resazurin
Procedure: as §1, §2

DLD-1 = assay: In vitro cancer cell line growth inhibition (GI50); type: cell-based; conditions: Homo sapiens; DLD-1, Colorectal, 72 hours, resazurin
Procedure: as §1, §2

SU-DHL-4 = assay: In vitro cancer cell line growth inhibition (GI50); type: cell-based; conditions: Homo sapiens; SU-DHL-4, DLBCL, 72 hours, resazurin
Procedure: as §1, §2

ZR-75-1 = assay: In vitro cancer cell line growth inhibition (GI50); type: cell-based; conditions: Homo sapiens; ZR-75-1, Breast, 72 hours, resazurin
Procedure: as §1, §2

THP-1 = assay: In vitro cancer cell line growth inhibition (GI50); type: cell-based; conditions: Homo sapiens; THP-1, AML, 72 hours, resazurin
Procedure: as §1, §2

DOHH2 = assay: In vitro cancer cell line growth inhibition (GI50); type: cell-based; conditions: Homo sapiens, DOHH-2; DOHH2, DLBCL, 72 hours, resazurin
Procedure: as §1, §2

[3] = test system: MV4-11 lymphoblast cell subcutaneous xenograft; assay: Tumor growth inhibition in MV4-11 subcutaneous xenograft mouse model; type: in vivo; conditions: female nude mice, all cohorts: 1.5-3 mg/kg SC BID/QD, 3-10 mg/kg PO QD (Table 3)
Procedure: This study investigated the effects of Compound 401 on tumor growth inhibition in an MV4-11 lymphoblast cell subcutaneous xenograft mouse model.
A total number of 120 female nude mice were purchased. These mice were allowed 3 days of acclimatization period before experiments started. The cell suspension was carried to the animal room in an ice box. Mice were implanted subcutaneously (s.c.) with 200 μL of 10×10^6 MV4-11 cells in 50% Matrigel in the right flank at the beginning of the study. All the mice were observed everyday to monitor the health and tumor size.
When tumors reached an average volume of 150-200 mm^3, 100 out of the 120 mice were selected based on their tumor volume and randomly assigned to 10 groups prior to dosing. Each group consisted of 10 tumor-bearing mice (n=10/group).
Tumor-bearing mice were treated with Compound 401 or vehicle, by subcutaneous injection (5 mL/kg) or oral dose (10 mL/kg) starting on the day after randomization for 29 days according to Table 3.
Mice were weighed at each dosing and recorded every day. Mice were observed closely for any overt signs of adverse, treatment-related side effects, which if any were recorded. […] Tumor size was measured three times a week in two dimensions using a caliper, and the tumor volume (V) was expressed in mm^3 using the formula: V=0.5 a×b^2 where a and b were the long and short diameters of the tumor, respectively. […]

Cc1noc2c1-c1ccc(-c3cnn(C)c3)cc1C(c1ccc(Cl)cc1)=N[C@H]2CC(N)=O [Compound 400, 2-((4S)-6-(4-chlorophenyl)-1-methyl-8-(1-trideuteromethyl-1H-pyrazol-4-yl)-4H-benzo[c]isoxazolo[4,5-e]azepin-4-yl)-^15N-acetamide]
EC50 [1]: 8 nM
EC50 [2]: 5 nM
IC50 (BRD4(BD1)): 18 nM

Cc1noc2c1-c1ccc(-c3cnn(C)c3)cc1C(c1ccc(Cl)cc1)=N[C@H]2CC(N)=O [Compound 401, 2-((4S)-6-(4-Chlorophenyl)-1-methyl-8-(1-methyl-1H-pyrazol-4-yl)-4H-benzo[c]isoxazolo[4,5-e]azepin-4-yl)acetamide]
EC50 [1]: 13 nM
GI50 (OCI-LY-19): 60 nM
GI50 (HT29): 200 nM
GI50 (WSU-DLCL-2): 45 nM
GI50 (OPM2): 10 nM
GI50 (DB): 150 nM
GI50 (KMS11): 100 nM
GI50 (A2780): 90 nM
GI50 (SU-DHL-6): 60 nM
GI50 (HT): 100 nM
GI50 (MV4-11): 15 nM
GI50 (A549): 460 nM
GI50 (MOLM-13): 90 nM
GI50 (SU-DHL-10): 100 nM
GI50 (LP1): 5 nM
GI50 (SU-DHL-8): 100 nM
GI50 (H23): 210 nM
GI50 (U2932): 625 nM
GI50 (143B): 230 nM
GI50 (H526): 10 nM
GI50 (SU-DHL-5): 325 nM
GI50 (KARPAS 422): 20 nM
GI50 (ML-2): 60 nM
GI50 (DLD-1): 480 nM
GI50 (SU-DHL-4): 150 nM
GI50 (ZR-75-1): 300 nM
GI50 (THP-1): 65 nM
GI50 (DOHH2): 60 nM
EC50 ([2]; Homo sapiens): 15 nM
tumor volume reduction [3]: Statistically significant reductions in tumor volumes
IC50 (BRD4(BD1)): 14 nM

Cc1noc2c1-c1ccc(-c3cnn(C)c3)cc1C(c1ccc(Cl)cc1)=N[C@H]2CC(=O)N(C)C [Compound 402]
EC50 [1]: 23 nM
EC50 ([2]; Homo sapiens): 7 nM
IC50 (BRD4(BD1)): 13 nM

Cc1ccc(-c2ccc3c(c2)C(c2ccc(Cl)cc2)=N[C@@H](CC(N)=O)c2onc(C)c2-3)cn1 [Compound 403]
EC50 [1]: 36 nM
EC50 ([2]; Homo sapiens): 29 nM
IC50 (BRD4(BD1)): 28 nM

Cc1noc(-c2ccc3c(c2)C(c2ccc(Cl)cc2)=N[C@@H](CC(N)=O)c2onc(C)c2-3)n1 [Compound 404, 2-((4S)-6-(4-chlorophenyl)-1-methyl-8-(3-methyl-1,2,4-oxadiazol-5-yl)-4H-benzo[c]isoxazolo[4,5-e]azepin-4-yl)acetamide]
EC50 [1]: 206 nM
EC50 ([2]; Homo sapiens): 36 nM
IC50 (BRD4(BD1)): 270 nM

Cc1noc2c1-c1ccc(-c3cnn(C)c3)cc1C(c1ccc(Cl)cc1)=N[C@H]2CC(=O)O [Compound 405]
EC50 [1]: 833 nM
EC50 ([2]; Homo sapiens): 420 nM
IC50 (BRD4(BD1)): 175 nM
